Key:
[1] = biological target: T1, Protein Mdm4 (Homo sapiens, UniProt O15151)
T1 sequence (O15151 whole entry): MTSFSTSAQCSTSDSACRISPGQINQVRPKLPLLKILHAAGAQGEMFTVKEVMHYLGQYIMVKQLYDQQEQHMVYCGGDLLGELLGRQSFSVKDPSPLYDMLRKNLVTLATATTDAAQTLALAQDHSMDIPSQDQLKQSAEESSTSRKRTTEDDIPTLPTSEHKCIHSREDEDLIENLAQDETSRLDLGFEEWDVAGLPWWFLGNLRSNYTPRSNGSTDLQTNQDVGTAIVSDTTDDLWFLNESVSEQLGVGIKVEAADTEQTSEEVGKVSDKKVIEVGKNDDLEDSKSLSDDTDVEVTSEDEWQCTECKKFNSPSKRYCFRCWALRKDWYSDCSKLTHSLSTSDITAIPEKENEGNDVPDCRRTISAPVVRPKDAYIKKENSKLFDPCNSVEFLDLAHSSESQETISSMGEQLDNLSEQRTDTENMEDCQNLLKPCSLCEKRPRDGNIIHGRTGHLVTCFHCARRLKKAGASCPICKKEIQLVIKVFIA

[2] = biological target: E3 ubiquitin-protein ligase Mdm2 (Homo sapiens, UniProt Q00987)
[3] = test system: HCT-116; assay: Induction of apoptosis in human HCT116 cells expressing wild type p53 assessed as live cells at 20 uM measured after 72 hrs by annexin V-FITC/propidium iodide staining-based flow cytometry analysis (reference value: 83.7 %); assay type: functional
[4] = test system: HCT-116; assay: Induction of apoptosis in human HCT116 cells expressing wild type p53 assessed as early apoptotic cells expressing wild type p53 at 20 uM measured after 72 hrs by annexin V-FITC/propidium iodide staining-based flow cytometry analysis (reference value: 8.8 %); assay type: functional
[5] = test system: HCT-116; assay: Induction of apoptosis in human HCT116 cells assessed as late apoptotic cells expressing wild type p53 at 20 uM measured after 72 hrs by annexin V-FITC/propidium iodide staining-based flow cytometry analysis (reference value: 6.8 %); assay type: functional
[6] = test system: HCT-116; assay: Induction of apoptosis in human HCT116 cells expressing wild type p53 assessed as necrotic cells at 20 uM measured after 72 hrs by annexin V-FITC/propidium iodide staining-based flow cytometry analysis (reference value: 0.7 %); assay type: functional
[7] = test system: SAOS-2; assay: Anticancer activity against p53-deleted human Saos2 cells assessed as inhibition of cell viability measured after 5 days by MTT assay; details: SAOS-2, 120 h
[8] = test system: U2OS; assay: Anticancer activity against human U2OS cells expressing wild-type p53 assessed as inhibition of cell viability measured after 5 days by MTT assay; details: 120 h

Sequence of E3 ubiquitin-protein ligase Mdm2 (Q00987 whole entry): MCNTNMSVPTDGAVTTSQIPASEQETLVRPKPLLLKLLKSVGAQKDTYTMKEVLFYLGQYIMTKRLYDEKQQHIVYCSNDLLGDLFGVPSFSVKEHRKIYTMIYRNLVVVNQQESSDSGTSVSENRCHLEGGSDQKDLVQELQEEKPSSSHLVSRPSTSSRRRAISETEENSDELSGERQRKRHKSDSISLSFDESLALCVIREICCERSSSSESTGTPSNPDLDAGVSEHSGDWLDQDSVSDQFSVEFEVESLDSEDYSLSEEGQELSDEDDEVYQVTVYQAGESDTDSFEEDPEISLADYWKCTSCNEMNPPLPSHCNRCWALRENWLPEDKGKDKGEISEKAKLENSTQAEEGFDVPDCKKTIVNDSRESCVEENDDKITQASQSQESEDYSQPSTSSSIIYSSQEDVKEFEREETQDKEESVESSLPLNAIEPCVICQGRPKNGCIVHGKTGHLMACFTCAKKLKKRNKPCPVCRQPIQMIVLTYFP

| Ki [1] | Structure (SMILES) | Activity [3] [%] | Activity [4] [%] | Activity [5] [%] | Activity [6] [%] | also measured |
| --- | --- | --- | --- | --- | --- | --- |
| Not Active | CC(C)(C)NC(=O)C(NCc1ccc(OCc2ccccc2Br)cc1)c1c(C(=O)O)[nH]c2cc(Cl)ccc12 (stereo not given) | – | – | – | – | – |
| Not Active | O=CN(Cc1ccc(OCc2ccc(Br)cc2)cc1)C(C(=O)NC12CC3CC(CC(C3)C1)C2)c1c(C(=O)O)[nH]c2cc(Cl)ccc12 (stereo not given) | – | – | – | – | – |
| Not Active | CC(C)(C)NC(=O)C(c1c(C(=O)O)[nH]c2cc(Cl)ccc12)N(C=O)Cc1ccc(OCc2ccc([N+](=O)[O-])cc2)cc1 (stereo not given) | – | – | – | – | Ki [2]: Not Active |
| – | CCOC(=O)c1[nH]c2cc(Cl)ccc2c1C(C(=O)NC(C)(C)C)N(C=O)Cc1ccc(OCc2ccc(C)cc2)cc1 (stereo not given) | 13 | 37.3 | 48.8 | 0.9 | – |
| – | Cc1ccc(COc2ccc(CN(C=O)C(C(=O)NC(C)(C)C)c3c(C(=O)O)[nH]c4cc(Cl)ccc34)cc2)cc1 (stereo not given) | 76.2 | 10.3 | 8.7 | 4.7 | – |
| – | CCOC(=O)c1[nH]c2cc(Cl)ccc2c1C(C(=O)NC(C)(C)C)N(C=O)Cc1ccc(OCc2ccccc2I)cc1 (stereo not given) | 86.3 | 6.3 | 6.2 | 1.3 | – |
| Not Active | CC(C)(C)NC(=O)C(c1c(C(=O)O)[nH]c2cc(Cl)ccc12)N(C=O)Cc1ccc(OCc2ccncc2)cc1 (stereo not given) | – | – | – | – | – |
| Not Active | CC(C)(C)NC(=O)C(c1c(C(=O)O)[nH]c2cc(Cl)ccc12)N(C=O)Cc1cc(F)c(OCc2ccccc2)c(F)c1 (stereo not given) | – | – | – | – | – |
| Not Active | CC(C)(C)NC(=O)C(c1c(C(=O)O)[nH]c2cc(Cl)ccc12)N(C=O)CCc1ccc(OCc2ccc(Br)cc2)cc1 (stereo not given) | – | – | – | – | – |
| Not Active | CC(C)(C)NC(=O)C(c1c(C(=O)O)[nH]c2cc(Cl)ccc12)N(C=O)Cc1ccc(OCc2c(Cl)cccc2Cl)cc1 (stereo not given) | – | – | – | – | – |
| – | CC(C)(C)NC(=O)C(c1c(C(=O)O)[nH]c2cc(Cl)ccc12)N(C=O)Cc1ccc(OCc2ccccc2I)cc1 (stereo not given) | 84.4 | 7.1 | 6.9 | 1.3 | – |
| – | COc1cccc(COc2ccc(CN(C=O)C(C(=O)NC(C)(C)C)c3c(C(=O)O)[nH]c4cc(Cl)ccc34)cc2)c1 (stereo not given) | 76.8 | 13.5 | 8.9 | 0.8 | – |
| Not Active | CC(C)(C)NC(=O)C(c1ccc(Cl)cc1)N(C=O)Cc1ccc(OCc2ccc(Cl)c(Cl)c2)cc1 (stereo not given) | – | – | – | – | Ki [2]: Not Active |
| Not Active | CC(C)(C)NC(=O)C(c1c(C(=O)O)[nH]c2cc(Cl)ccc12)N(C=O)CCCN1CCOCC1 (stereo not given) | – | – | – | – | – |
| Not Active | CN(Cc1ccc(OCc2ccccc2Br)cc1)C(C(=O)NC(C)(C)C)c1c(C(=O)O)[nH]c2cc(Cl)ccc12 (stereo not given) | – | – | – | – | Ki [2]: Not Active |
| – | CCOC(=O)c1[nH]c2cc(Cl)ccc2c1C(C(=O)NC(C)(C)C)N(C=O)Cc1ccc(OCc2ccc(Cl)c(Cl)c2)cc1 (stereo not given) | 30 | 27.1 | 42.4 | 0.4 | – |
| Not Active | CC(C)(C)NC(=O)C(c1cccc(Cl)c1)N(C=O)Cc1ccc(Cl)cc1 (stereo not given) | – | – | – | – | Ki [2]: Not Active |
| Not Active | O=CN(CCc1ccccc1)C(C(=O)NCCc1ccccc1)c1c(C(=O)O)[nH]c2cc(Cl)ccc12 (stereo not given) | – | – | – | – | – |
| Not Active | CC(C)(C)NC(=O)C(c1c(C(=O)O)[nH]c2cc(Cl)ccc12)N(C=O)Cc1ccc(OCc2ccsc2)cc1 (stereo not given) | – | – | – | – | Ki [2]: Not Active |
| – | CCOC(=O)c1[nH]c2cc(Cl)ccc2c1C(C(=O)NC(C)(C)C)N(C=O)Cc1ccc(OCCc2ccccc2)cc1 (stereo not given) | 12.6 | 46.6 | 40.2 | 0.7 | – |
| Not Active | O=CN(Cc1ccc(OCc2ccc(F)cc2)cc1)C(C(=O)NC12CC3CC(CC(C3)C1)C2)c1c(C(=O)O)[nH]c2cc(Cl)ccc12 (stereo not given) | – | – | – | – | Ki [2]: Not Active |
| – | CCOC(=O)c1[nH]c2cc(Cl)ccc2c1C(C(=O)NC(C)(C)C)N(C=O)Cc1ccc(OCc2ccc(Br)cc2)cc1 (stereo not given) | 37.4 | 42.7 | 19.1 | 0.8 | – |

| Ki [1] | Structure (SMILES) | Activity [3] [%] | Activity [4] [%] | Activity [5] [%] | Activity [6] [%] | also measured |
| --- | --- | --- | --- | --- | --- | --- |
| Not Active | CC(=O)N(Cc1ccc(OCc2ccc(F)cc2)cc1)C(C(=O)NC1CCCCC1)c1c(C(=O)O)[nH]c2cc(Cl)ccc12 (stereo not given) | – | – | – | – | – |
| – | CC(C)(C)NC(=O)C(c1c(C(=O)O)[nH]c2cc(Cl)ccc12)N(C=O)Cc1ccc(OCc2ccc(Br)cc2)cc1 (stereo not given) | 77.9 | 9.8 | 11.6 | 0.7 | – |
| Not Active | CC(=O)N(Cc1ccc(OCc2ccccc2)cc1)C(C(=O)NC12CC3CC(CC(C3)C1)C2)c1c(C(=O)O)[nH]c2cc(Cl)ccc12 (stereo not given) | – | – | – | – | – |
| – | CC(C)(C)NC(=O)C(c1c(C(=O)O)[nH]c2cc(Cl)ccc12)N(C=O)Cc1ccc(OCc2ccc(Cl)c(Cl)c2)cc1 (stereo not given) | 81.2 | 10 | 7.7 | 1.1 | – |
| – | CC(C)(C)NC(=O)C(c1c(C(=O)O)[nH]c2cc(Cl)ccc12)N(C=O)Cc1ccc(OCc2cc(F)cc(F)c2)cc1 (stereo not given) | 79.6 | 11.9 | 7.9 | 0.7 | – |
| – | CCOC(=O)c1[nH]c2cc(Cl)ccc2c1C(C(=O)NC(C)(C)C)N(C=O)Cc1ccc(OCc2ccccc2Br)cc1 (stereo not given) | 9.9 | 32.3 | 57.2 | 0.7 | – |
| – | O=CN(Cc1ccc(OCc2ccccc2Br)cc1)C(C(=O)NC1C2CC3CC(C2)CC1C3)c1c(C(=O)O)[nH]c2cc(Cl)ccc12 (stereo not given) | – | – | – | – | EC50 [7]: 130 µM; EC50 [8]: 40 µM |
| – | CCOC(=O)c1[nH]c2cc(Cl)ccc2c1C(C(=O)NC(C)(C)C)N(C=O)Cc1ccc(OCc2cccc(Cl)c2)cc1 (stereo not given) | 34.5 | 21.6 | 42.7 | 1.2 | – |
| – | CC(C)(C)NC(=O)[C@H](c1c(C(=O)O)[nH]c2cc(Cl)ccc12)N(C=O)Cc1ccc(OCc2ccccc2Br)cc1 | – | – | – | – | EC50 [7]: 200 µM; EC50 [8]: 130 µM |
| Not Active | O=CN(CCc1ccccc1)C(C(=O)NC12CC3CC(CC(C3)C1)C2)c1c(C(=O)O)[nH]c2cc(Cl)ccc12 (stereo not given) | – | – | – | – | – |
| Not Active | CCOC(=O)c1[nH]c2cc(Cl)ccc2c1C(C(=O)NC(C)(C)C)N(C=O)Cc1ccc(OCc2ccsc2)cc1 (stereo not given) | – | – | – | – | – |
| – | CCOC(=O)c1[nH]c2cc(Cl)ccc2c1C(C(=O)NC(C)(C)C)N(C=O)Cc1ccc(OCc2cccc(OC)c2)cc1 (stereo not given) | 84.8 | 8.3 | 6.1 | 0.8 | – |
| Not Active | CC(C)(C)NC(=O)C(c1c(C(=O)O)[nH]c2cc(Cl)ccc12)N(C=O)Cc1ccc(OCc2cccnc2)cc1 (stereo not given) | – | – | – | – | Ki [2]: Not Active |
| – | CCOC(=O)c1[nH]c2cc(Cl)ccc2c1C(C(=O)NC(C)(C)C)N(C=O)Cc1ccc(OCc2cc(F)cc(F)c2)cc1 (stereo not given) | 14.1 | 45.2 | 40.2 | 0.5 | – |
| Not Active | CC(C)(C)NC(=O)C(c1c(C(=O)NCCN2CCOCC2)[nH]c2cc(Cl)ccc12)N(C=O)Cc1ccc(OCc2ccccc2Br)cc1 (stereo not given) | – | – | – | – | – |
| – | CC(C)(C)NC(=O)C(c1c(C(=O)O)[nH]c2cc(Cl)ccc12)N(C=O)Cc1ccc(OCc2cccc(Cl)c2)cc1 (stereo not given) | 81 | 10.2 | 7.9 | 0.9 | – |
| Not Active | CCOC(=O)c1[nH]c2cc(Cl)ccc2c1C(C(=O)NC(C)(C)C)N(C=O)Cc1ccc(NCc2ccc(Br)cc2)cc1 (stereo not given) | 58.6 | 15.2 | 23.6 | 2.6 | – |
| Not Active | CC(C)(C)NC(=O)C(c1c(C(=O)O)[nH]c2cc(Cl)ccc12)N(C=O)Cc1ccc(OCCc2ccccc2)cc1 (stereo not given) | 80.7 | 8.1 | 10.7 | 0.5 | – |
| Not Active | Cn1c(C(=O)O)c(C(C(=O)NC(C)(C)C)N(C=O)Cc2ccc(OCc3ccccc3Br)cc2)c2ccc(Cl)cc21 (stereo not given) | – | – | – | – | Ki [2]: Not Active |
| – | CC(C)(C)NC(=O)C(c1c(C(=O)O)[nH]c2cc(Cl)ccc12)N(C=O)Cc1ccc(NCc2ccc(Br)cc2)cc1 (stereo not given) | 65.6 | 9.6 | 18.8 | 6 | – |
| – | CC(C)(C)NC(=O)C(c1c(C(=O)O)[nH]c2cc(Cl)ccc12)N(C=O)Cc1ccc(OCc2ccccc2Br)cc1 (racemic) | 69.1 | 15.4 | 14.6 | 1 | – |
| – | COc1ccc(C2=N[C@@H](c3ccc(Cl)cc3)[C@@H](c3ccc(Cl)cc3)N2C(=O)N2CCNC(=O)C2)c(OC(C)C)c1 [NUTLIN-3] | 53 | 26.9 | 18.9 | 1.2 | Ki [2]: Not Active |
